Data published in PubChem BioAssay (NCI).
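Tested at 5 concentrations; 48 h exposure; 96-well plates; endpoints linearly interpolated, else capped at highest concentration. At the GI50, growth is halved. TGI marks complete inhibition of growth.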

Tests used:
Assay in all cases: NCI-60 cell line screen, 48 h
NCI-H522 lung = system: NCI-H522 lung
IGROV1 ovarian = system: IGROV1 ovarian
SK-OV-3 ovarian = system: SK-OV-3 ovarian
A549 NSCLC = system: A549 NSCLC
HT29 colon = system: HT29 colon
UACC-257 melanoma = system: UACC-257 melanoma
EKVX NSCLC = system: EKVX NSCLC
SF-268 CNS = system: SF-268 CNS
OVCAR-5 ovarian = system: OVCAR-5 ovarian
RXF 393 renal = system: RXF 393 renal

| SMILES | GI50 (NCI-H522 lung) | TGI (NCI-H522 lung) | GI50 (IGROV1 ovarian) | TGI (IGROV1 ovarian) | GI50 (SK-OV-3 ovarian) | TGI (SK-OV-3 ovarian) | GI50 (A549 NSCLC) | TGI (A549 NSCLC) | GI50 (HT29 colon) | TGI (HT29 colon) | GI50 (UACC-257 melanoma) | TGI (UACC-257 melanoma) | GI50 (EKVX NSCLC) | TGI (EKVX NSCLC) | GI50 (SF-268 CNS) | TGI (SF-268 CNS) | GI50 (OVCAR-5 ovarian) | TGI (OVCAR-5 ovarian) | GI50 (RXF 393 renal) | TGI (RXF 393 renal) |
| --- | --- | --- | --- | --- | --- | --- | --- | --- | --- | --- | --- | --- | --- | --- | --- | --- | --- | --- | --- | --- |
| Cc1ccc(S(=O)(=O)NC(CCCCN)C(=O)CCl)cc1 (stereo not drawn) | 31 µM | > 100 µM | > 100 µM | > 100 µM | > 100 µM | > 100 µM | > 100 µM | > 100 µM | > 100 µM | > 100 µM | > 100 µM | > 100 µM | 27.3 µM | 93.4 µM | 67.5 µM | > 100 µM | > 100 µM | > 100 µM | 54.2 µM | > 100 µM |
| CCCCCCCCCCCCOC1C(C(COC2OC(C(O)CO)C3OC(C)(C)OC23)OC(=O)Nc2ccc([N+](=O)[O-])cc2)OC2OC(C)(C)OC21 (stereo not drawn) | 1.92 µM | 3.9 µM | 2.34 µM | 5.73 µM | 15.9 µM | 30.8 µM | 3.36 µM | 10.7 µM | 2.57 µM | 7.94 µM | 3.53 µM | 9.35 µM | 2.34 µM | 6.21 µM | 7.34 µM | 22.1 µM | 5.41 µM | 19.1 µM | 2.71 µM | 6.57 µM |
| O=C(/C=C/CN1CCCCC1)Nc1cc2c(Nc3ccc(F)c(Cl)c3F)ncnc2cc1OCCOC(F)F | 0.0493 µM | 1.8 µM | < 0.0182 µM | 0.815 µM | < 0.0201 µM | 0.263 µM | 0.585 µM | 9.92 µM | 0.919 µM | 5.77 µM | 1.74 µM | 5.64 µM | 0.0646 µM | 5.22 µM | 1.14 µM | 4.59 µM | 0.406 µM | 13.6 µM | 0.497 µM | 2.38 µM |
| CCOc1ccccc1Nc1nc(C)c(C(=O)CC(=O)C(=O)Nc2ccccc2)s1 |  | 84.8 µM |  | > 100 µM |  | > 100 µM |  | > 100 µM |  | > 100 µM |  | > 100 µM |  | > 100 µM |  | > 100 µM |  | > 100 µM |  | > 100 µM |
| CC(C)(O)C1CC(=O)C(C)(C2C(O)CC3(C)C4CC=C5C(CCC(O)C5(C)C)C4(C)C(=O)CC23C)O1 (stereo not drawn) |  | > 100 µM |  | > 100 µM |  | > 100 µM |  | > 100 µM |  | > 100 µM |  | > 100 µM |  | > 100 µM |  | > 100 µM |  | > 100 µM |  | > 100 µM |
| Cc1cccc(NC(=O)c2sc3nc4c(cc3c2N)CCC4)c1C | 0.325 µM | 16.5 µM | 0.766 µM | 53 µM | 0.379 µM | 18.4 µM | 0.453 µM | 13.5 µM |  |  | 2.67 µM | 46.6 µM |  |  | 0.722 µM | 26 µM | 0.531 µM | 62.6 µM | 0.18 µM | 0.669 µM |
| Cc1cn2cc(-c3ccncc3)nc2s1 |  | > 100 µM |  | > 100 µM |  | > 100 µM |  | > 100 µM |  | > 100 µM |  | > 100 µM |  | > 100 µM |  | > 100 µM |  | > 100 µM |  |  |
| Cn1cc(C2=C(c3cn(CCCSC(=N)N)c4ccccc34)C(=O)NC2=O)c2ccccc21 | 1.51 µM | 5.27 µM | 3.03 µM | 12.3 µM | 5 µM | 15.4 µM | 4.73 µM | 12.9 µM | 2.73 µM | 11.1 µM | 3.22 µM | 6.73 µM |  |  | 1.76 µM | 7.52 µM | 4.51 µM | 18.6 µM | 1.18 µM | 2.82 µM |
